From US20230113761A1, “METHOD AND COMPOSITION FOR MIMICKING BIOLOGICAL BENEFITS OF CALORIC RESTRICTION BY ADMINISTRATION OF B-AMINOISOBUTYRIC ACID” (NANJING NUTRABUILDING BIO-TECH CO., LTD., priority 2021, published 2023)

Assays:
[1] = Body weight and body composition (fat mass, lean mass, free water) of high-fat diet mice during 8 weeks of feeding intervention; type: in vivo; details: for fat mass: FIG. 2
Experimental: (§1) Mice were divided into groups and named after the diet they consumed. Group A mice were fed ad libitum (control), Group B mice were on high-fat diet (HFD), Group C mice were fed restricted amount of the HFD diet to achieve caloric restriction (HFD+CR), and Group D mice were fed high-fat diet and supplemented with 150 mg/kg β-aminoisobutyric acid (HFD+BAIBA). All groups of mice were housed individually, and fed for months of interventions and had free access to water. Health status was monitored during the intervention.
(§2) The four groups of mice were fed for eight weeks, body weight was measured weekly, and body fat mass, lean mass and free water mass were also measured by Body Composition Analyzer to monitor body composition every week. At the end of 8 weeks of treatment, blood was collected for each group of mice, and parameters such as total cholesterol (TCHO), triglyceride (TG), low-density lipoprotein (LDL) and high-density lipoprotein (HDL) were detected. Data were collected and subject to statistical analysis.

[2] = Blood lipid parameters (TCHO, TG, LDL, HDL) of high-fat diet mice after 8 weeks of treatment; type: in vivo; details: group D (HFD+BAIBA, 150 mg/kg) vs group B (HFD)
Experimental: as §1, §2

CC(CN)C(=O)O (stereo not drawn) [BAIBA, β-aminoisobutyric acid]
fat mass ([1]; group D (HFD+BAIBA, 150 mg/kg) vs group B (HFD), 8 weeks, Body Composition Analyzer): decreased compared to group B (HFD)
free water content ([1]; group D (HFD+BAIBA, 150 mg/kg) vs group B (HFD), 8 weeks, FIG. 4): significantly higher than that in group B (HFD)
lean mass ([1]; group D (HFD+BAIBA, 150 mg/kg) vs group C (HFD+CR), by the 8th week, FIG. 3): significantly more than that of group C (HFD+CR)
fat mass ([1]; group D (HFD+BAIBA, 150 mg/kg) vs group C (HFD+CR), from week 5 of feeding intervention): less fat mass than group C (HFD+CR)
body weight ([1]; mice on high-fat diet supplemented with 150 mg/kg BAIBA (group D) vs group B (HFD), 8 weeks, measured weekly, FIG. 1): significantly lower than that of group B (HFD)
total cholesterol (TCHO) level ([2]; FIG. 5): significantly lower than that of group B (HFD) and close to that of group C
triglyceride (TG) level ([2]; FIG. 6): significantly lower than that of group B (HFD) and close to that of group C
low-density lipoprotein (LDL) level ([2]; FIG. 7): significantly lower than that of group B (HFD)
high-density lipoprotein (HDL) level ([2]; four groups not significantly different, FIG. 8): higher HDL levles compared to group B (HFD)
